Laboratory results from patent US7470715B2, “Estrogen modulators” (Pfizer Inc., priority 2005, dated 2008).

Columns and labels:
[1] = molecular target: T1, ligand binding domain of the estrogen receptor alpha chain (ERαLBD) (Homo sapiens, UniProt P03372); assay: ER agonist cell assay (ERα), Huh-7 co-transfection, luciferase; assay type: cell-based; conditions: for EC50: Huh-7 cells co-transfected with pG5luc and ERαLBD, overnight incubation, luciferase; for ERα % of Max E2 Response: percent of the maximum estradiol fold change, Huh-7, pG5luc and ERαLBD
T1 construct: expressed in transfected cells; host or cells: Huh-7 human hepatoma cells, transient transfection with FuGENE 6
T1 sequence (P03372 311-547 limits assumed): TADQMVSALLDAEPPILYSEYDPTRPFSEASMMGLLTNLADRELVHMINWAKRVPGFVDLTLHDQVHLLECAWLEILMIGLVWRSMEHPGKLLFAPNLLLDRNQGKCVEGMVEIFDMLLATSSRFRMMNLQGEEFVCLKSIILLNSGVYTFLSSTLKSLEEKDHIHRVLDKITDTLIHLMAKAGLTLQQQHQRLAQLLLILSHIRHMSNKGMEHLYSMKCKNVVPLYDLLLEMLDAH
Description: (§1) The compounds ability to mimic the effects of estrogen on the estrogen receptor were determined in a whole cell assay as described immediately below.
(§2) Experimental Procedure for ER Agonist Cell Assay
(§3) • Cell line and plasmids: The human hepatoma cell line Huh-7 was used for co-transfections. Cells were maintained in culture medium and split when they reached 80-90% confluency. Three plasmids were routinely used in the assay. pG5luc contained the firefly luciferase gene and was obtained from Promega. […] Cell Culture Media and Reagents:
(§4) Culture medium: DMEM (phenol red free), 10% charcoal treated HyClone serum, 1% L-glutamine, and 1% penicillin/streptomycin
(§5) Transfection medium: DMEM (phenol red free) and 10% charcoal treated HyClone serum
(§6) Luciferase reagents: Dual-Glo Luciferase Kit (Promega cat #E2980) was used for determination of luciferase activity.
(§7) Transient transfections were preformed using the lipophilic reagent FuGENE 6 (Roche). Cells were split and seeded at 7.2×10^6/150 cm^2 flask in 20 mL of transfection medium. 5-6 hrs later cells were co-transfected with either pG5luc and ERαLBD or pG5luc and ERβLBD(pm418). Transfected cells grew overnight and were then used the next day.
(§8) Cells transfected 24 hrs earlier were harvested, counted, and seeded in wells containing compound at a density of 1×10^4 cells/well. […] Cells were incubated overnight at 37° C. and 5% CO2 in the presence of compound. The following day medium was aspirated from the wells and 100 ul of Dual-Glo™ Luciferase Reagent were added to each well. Plates were incubated at room temperature for 20 minutes and firefly luminescence was measured on a luminometer. Next, 50 ul of Dual-Gbo™ Stop & Glo® Reagent were added to each well and after 20 minutes at room temperature the Renilla luminescence was measured on a luminometer. Values from each well were normalized by dividing the firefly luminescence by the Renilla luminescence. Estradiol was used as the standard and run in each assay. The fold induction over background for each compound was compared to the maximum fold induction for estradiol in each assay. […] Those compounds that were not tested, or the data was unavailable are marked as NT.

[2] = molecular target: ligand binding domain of the estrogen receptor beta chain (ERβLBD) that contained a point mutation at amino acid residue 418 (pm418) (Homo sapiens, UniProt Q92731); assay: ER agonist cell assay (ERβ), Huh-7 co-transfection, luciferase; assay type: cell-based; conditions: for EC50: Huh-7 cells co-transfected with pG5luc and ERβLBD(pm418), overnight incubation, luciferase; for ERβ % of Max E2 Response: percent of the maximum estradiol fold change, Huh-7, pG5luc and ERβLBD(pm418)
Description: as §1, §2, §3, §4, §5, §6, §7, §8

[3] = system: hairless female SKH, 1-hr mice; assay: Animal model for reversal of wrinkles: skin thickness model, topical dosing, skin thickness and hyaluronic acid; assay type: in vivo, mouse; conditions: QD, three days
Text: Animal Model for Reversal of Wrinkles
Uzuka et al. describes an increase in mouse back skin water content, hyaluronic acid (HA) content, and hyaluronic acid synthetase activity following topical application or subcutaneous injection of estradiol (Biochimica et Biophysica Acta, 627, 199-206, 1980; Biochimica et Biophysica Acta 673, 387-393, 1981). […] Thus, this model may be used to as a preliminary screen to assess the potential for estrogen modulators to alleviate wrinkles in human skin.
The skin thickness model uses hairless female SKH, 1-hr mice. Mice aged to approximately 11 weeks are introduced into the laboratory environment and acclimated for at least 1 week prior to use in the study may be used. Each group typically consisted of 7 animals that may be run in parallel with vehicle and the positive control estradiol. Based on binding and/or cellular assay data, compounds are chosen for screening in this model. Those compounds include the products of Examples, 2, 9, 15, 46, 47, 48, 51, 52, 61, 135, and 137. Prior to topical application to mouse dorsal skin, a sufficient quantity of each compound is dissolved in a solvent generally consisting of ethanol and propylene glycol (70/30% v/v) (vehicle) to achieve the final concentration specified in Table C below. Animals are dosed topically QD or BID, for three days. Each dose consisted of 100 microliters of vehicle or drug applied uniformly to the entire dorsal surface (˜18 cm^2). All animals are sacrificed approximately 18-24 hours after the final dose. Skin thickness (ST) is measured using a caliper. HA is extracted from the skin and quantitated using commercially-available enzyme-linked immunosorbent assays (ELISAs)(HA).
Data are presented as percent of the estradiol response after subtracting out the ST for vehicle-treated mouse skin. The estradiol response is set to 100% and the vehicle resoibse becines 0%.

Row | SMILES | melting point [°C] | EC50 [1] [nM] | ERα % of Max E2 Response [1] [%] | EC50 [2] [nM] | ERβ % of Max E2 Response [2] [%] | HA (hyaluronic acid), percent of the estradiol response ([3]; 3% topical) [%] | ST (skin thickness), percent of the estradiol response ([3]; 3% topical) [%] | HA (hyaluronic acid), percent of the estradiol response ([3]; 1% topical) [%] | ST (skin thickness), percent of the estradiol response ([3]; 1% topical) [%]
1 | Cl.Oc1ccc(-c2noc(C3(CN4CCCNCC4)CC3)c2-c2ccccc2)cc1 | 193 to 194 |  |  |  |  |  |  |  | 
2 | Cl.Oc1ccc(-c2noc(C3(CNc4ccncc4)CC3)c2-c2ccccc2)cc1 | 316 to 317 |  |  |  |  |  |  |  | 
3 | Oc1ccc(-c2noc(C3(C[n+]4ccccc4)CC3)c2-c2ccccc2)cc1.[Cl-] | 244 to 245 |  |  |  |  |  |  |  | 
4 | CCC(NCC1(c2onc(-c3ccc(O)cc3)c2-c2ccccc2)CC1)c1ccccc1 (racemic) [Example 25, (±)-4-(4-Phenyl-5-{1-[(1-phenyl-propylamino)-methyl]-cyclopropyl}-isoxazol-3-yl)-phenol] | 126 to 127 | 26.5 | 18.2 | > 10000 | >0.571 |  |  |  | 
5 | Oc1ccc(-c2noc(C3(CNCC4CCCO4)CC3)c2-c2ccccc2)cc1 (racemic) [Example 30, (±)-4-[4-Phenyl-5-(1-{[(tetrahydro-furan-2-ylmethyl)-amino]-methyl}-cyclopropyl)-isoxazol-3-yl]-phenol] | 276 to 277 |  |  |  |  |  |  |  | 
6 | CCOc1ccccc1OCC1(c2onc(-c3ccc(O)cc3)c2-c2ccccc2)CC1 [Example 4, 4-{5-[1-(2-Ethoxy-phenoxymethyl)-cyclopropyl]-4-phenyl-isoxazol-3-yl}-phenol] | 148 to 149 | 141 | 14.7 | > 10000 | >0.727 |  |  |  | 
7 | Oc1ccc(-c2noc(C3(COc4c(F)cccc4OC(F)(F)F)CC3)c2-c2ccccc2)cc1 [Example 5, 4-{5-[1-(2-Fluoro-6-trifluoromethoxy-phenoxymethyl)-cyclopropyl]-4-phenyl-isoxazol-3-yl}-phenol] | 132 to 133 | 45.9 | 19.3 | > 10000 | >4.51 |  |  |  | 
8 | CCOc1ncccc1OCC1(c2onc(-c3ccc(O)cc3)c2-c2ccccc2)CC1 [Example 6, 4-{5-[1-(2-Ethoxy-pyridin-3-yloxymethyl)-cyclopropyl]-4-phenyl-isoxazol-3-yl}-phenol] | 190 to 192 | 237 | 9.48 | > 10000 | >3.19 |  |  |  | 
9 | CCCOCC1(c2onc(-c3ccc(O)cc3)c2-c2ccccc2)CC1 [Example 9, 4-[4-Phenyl-5-(1-propoxymethyl-cyclopropyl)-isoxazol-3-yl]-phenol] |  | 177 | 40.2 | 41.3 | 2.63 | 58 | 49 |  | 
10 | Cl.Oc1ccc(-c2noc(C3(CNc4ccc5c(c4)CCC5)CC3)c2-c2ccccc2)cc1 [Example 23, 4-{5-[1-(Indan-5-ylaminomethyl)-cyclopropyl]-4-phenyl-isoxazol-3-yl}-phenol hydrochloride salt] | 204 to 205 | 559 | 21 | 3860 | 5.5 |  |  |  | 
11 | Cl.Oc1ccc(-c2noc(C3(CN4CCSCC4)CC3)c2-c2ccccc2)cc1 [Example 32, 4-[4-Phenyl-5-(1-thiomorpholin-4-ylmethyl-cyclopropyl)-isoxazol-3-yl]-phenol hydrochloride salt] | 249 to 250 | 22.9 | 38.5 | 19.5 | 0.999 |  |  |  | 
12 | Oc1ccc(-c2noc(C3CC3)c2-c2ccccc2)cc1 [Example 35, 4-(5-Cyclopropyl-4-phenyl-isoxazol-3-yl)-phenol] | 197 to 200 | 171 | 25 | 130 | 5.78 |  |  |  | 
13 | CCC(O)(CC)C1(c2onc(-c3ccc(O)cc3)c2-c2ccccc2)CC1 [Example 50, 4-{5-[1-(1-Ethyl-1-hydroxy-propyl)-cyclopropyl]-4-phenyl-isoxazol-3-yl}-phenol] | 118 to 119 | 124 | 80.2 |  | 1 |  |  |  | 
14 | O=C(OCC1(c2onc(-c3ccc(O)cc3)c2-c2ccccc2)CC1)C1CC1 [Example 51] |  | 152 | 63.8 | 84.2 | 75.2 |  |  | 35 | 19
15 | CC(C)C(=O)OCC1(c2onc(-c3ccc(O)cc3)c2-c2ccccc2)CC1 [Example 52] |  | 138 | 66 | 117 | 121 | 34 | 21 |  | 

Now from value to compound, other results behind:

Row | melting point [°C] | EC50 [1] [nM] | ERα % of Max E2 Response [1] [%] | EC50 [2] [nM] | ERβ % of Max E2 Response [2] [%] | SMILES | HA (hyaluronic acid), percent of the estradiol response ([3]; 3% topical) [%] | ST (skin thickness), percent of the estradiol response ([3]; 3% topical) [%] | HA (hyaluronic acid), percent of the estradiol response ([3]; 1% topical) [%] | ST (skin thickness), percent of the estradiol response ([3]; 1% topical) [%]
16 | 234 |  |  |  |  | CN(C)CC1(c2onc(-c3ccc(O)cc3)c2-c2ccccc2)CC1.Cl |  |  |  | 
17 | 196 to 197 | 47.5 | 79.3 | 46.7 | 81.2 | CC(O)C1(c2onc(-c3ccc(O)cc3)c2-c2ccccc2)CC1 (racemic) [Example 45, (±)-4-{5-[1-(1-Hydroxy-ethyl)-cyclopropyl]-4-phenyl-isoxazol-3-yl}-phenol] |  |  |  | 
18 | 212 to 214 |  |  |  |  | CC1(c2onc(-c3ccc(O)cc3)c2-c2ccccc2)CC1 [Example 36, 4-[5-(1-methyl-cyclopropyl)-4-phenyl-isoxazol-3-yl]phenol] |  |  |  | 
19 | 212 to 213 | 159 | 94.6 | 23.6 | 36.7 | CC(C)(O)C1(c2onc(-c3ccc(O)cc3)c2-c2ccccc2)CC1 [Example 49, 4-{5-[1-(1-Hydroxy-1-methyl-ethyl)-cyclopropyl]-4-phenyl-isoxazol-3-yl}-phenol] |  |  |  | 
20 | 220 to 221 |  |  |  |  | C[C@H](O)C1(c2onc(-c3ccc(O)cc3)c2-c2ccccc2)CC1 [Example 100, Alt. D, (S)-(+)-4-{5-[1-(1-Hydroxy-ethyl)-cyclopropyl]-4-phenyl-isoxazol-3-yl}-phenol] |  |  |  | 
21 | 165 to 166 |  |  |  |  | CC[C@H](O)C1(c2onc(-c3ccc(O)cc3)c2-c2ccccc2)CC1 [Example 100, Alt. F, (S)-(+)-4-{5-[1-(1-hydroxy-propyl)-cyclopropyl]-4-phenyl-isoxazol-3-yl}-phenol] |  |  |  | 
22 | 220 to 225 |  |  |  |  | NCC1(c2onc(-c3ccc(O)cc3)c2-c2ccccc2)CC1 [Example 105, 4-{5-[1-(Aminomethyl)cyclopropyl]-4-phenylisoxazol-3-yl}phenol] |  |  |  | 
